In one assay the target is T1, Histone deacetylase 11 (Homo sapiens, UniProt Q96DB2).
T1 sequence (Q96DB2 whole entry): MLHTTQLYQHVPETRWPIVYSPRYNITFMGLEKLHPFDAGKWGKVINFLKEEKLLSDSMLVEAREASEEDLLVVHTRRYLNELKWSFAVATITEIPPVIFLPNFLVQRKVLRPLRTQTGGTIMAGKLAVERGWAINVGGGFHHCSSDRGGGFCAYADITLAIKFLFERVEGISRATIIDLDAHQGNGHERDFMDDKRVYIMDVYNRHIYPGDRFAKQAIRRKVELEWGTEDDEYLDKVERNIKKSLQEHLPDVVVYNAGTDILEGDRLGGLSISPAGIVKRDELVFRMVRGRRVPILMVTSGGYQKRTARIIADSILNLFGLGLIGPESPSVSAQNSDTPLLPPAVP
Kind of assay: Inhibition of human HDAC11.

Another assay concerns the target T2, Histone deacetylase 8 (Homo sapiens, UniProt Q9BY41).
T2 sequence (Q9BY41 whole entry): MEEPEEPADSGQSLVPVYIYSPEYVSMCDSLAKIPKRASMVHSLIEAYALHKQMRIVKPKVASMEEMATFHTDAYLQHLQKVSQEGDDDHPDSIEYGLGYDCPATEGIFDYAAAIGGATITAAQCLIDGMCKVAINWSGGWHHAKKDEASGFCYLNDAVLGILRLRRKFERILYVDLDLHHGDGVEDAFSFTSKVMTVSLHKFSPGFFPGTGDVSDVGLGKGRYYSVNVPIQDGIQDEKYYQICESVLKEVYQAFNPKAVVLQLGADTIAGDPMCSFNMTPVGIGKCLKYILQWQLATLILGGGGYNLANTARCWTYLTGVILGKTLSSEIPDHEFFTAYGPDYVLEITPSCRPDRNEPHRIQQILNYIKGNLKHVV
Kind of assay: Inhibition of human HDAC8.

The subject of a further assay is NCI-H460. In words: Cytotoxicity against human NCI-H460 cells after 48 hrs by SRB assay. The following applies: NCI-H460, 48 h. The class given is functional, cell-based. (In general: In SRB staining, fixed cells bind dye roughly in proportion to their protein.)
The next assay has as its system NB-4. Kind of assay: Cytotoxicity against human NB4 cells after 48 hrs by SRB assay. The class given is functional, cell-based. The note with it: NB-4, 48 h.
Another assay relates to HCT-116. In words: Cytotoxicity against human HCT116 cells after 48 hrs by SRB assay. The format is functional, cell-based. The following applies: HCT-116, 48 h.
Another assay deals with Histone deacetylase 1 (Homo sapiens, UniProt Q13547).
Sequence of Histone deacetylase 1 (Q13547 whole entry): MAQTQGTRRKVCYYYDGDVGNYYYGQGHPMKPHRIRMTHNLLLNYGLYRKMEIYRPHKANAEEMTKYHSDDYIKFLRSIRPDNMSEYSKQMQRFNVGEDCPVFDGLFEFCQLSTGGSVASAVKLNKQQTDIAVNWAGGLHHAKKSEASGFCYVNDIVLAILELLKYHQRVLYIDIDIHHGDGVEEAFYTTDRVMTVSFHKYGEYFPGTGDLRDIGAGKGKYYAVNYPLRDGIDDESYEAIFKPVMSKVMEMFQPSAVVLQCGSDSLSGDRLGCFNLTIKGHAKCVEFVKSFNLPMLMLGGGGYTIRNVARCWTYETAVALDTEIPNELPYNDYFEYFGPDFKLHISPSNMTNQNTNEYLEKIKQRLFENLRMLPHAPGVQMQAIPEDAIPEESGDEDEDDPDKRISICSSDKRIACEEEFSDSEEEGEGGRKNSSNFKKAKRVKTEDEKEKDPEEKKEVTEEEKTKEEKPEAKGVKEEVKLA
A further assay concerns the target T3, Histone deacetylase 7 (Homo sapiens, UniProt Q8WUI4).
T3 sequence (Q8WUI4 whole entry): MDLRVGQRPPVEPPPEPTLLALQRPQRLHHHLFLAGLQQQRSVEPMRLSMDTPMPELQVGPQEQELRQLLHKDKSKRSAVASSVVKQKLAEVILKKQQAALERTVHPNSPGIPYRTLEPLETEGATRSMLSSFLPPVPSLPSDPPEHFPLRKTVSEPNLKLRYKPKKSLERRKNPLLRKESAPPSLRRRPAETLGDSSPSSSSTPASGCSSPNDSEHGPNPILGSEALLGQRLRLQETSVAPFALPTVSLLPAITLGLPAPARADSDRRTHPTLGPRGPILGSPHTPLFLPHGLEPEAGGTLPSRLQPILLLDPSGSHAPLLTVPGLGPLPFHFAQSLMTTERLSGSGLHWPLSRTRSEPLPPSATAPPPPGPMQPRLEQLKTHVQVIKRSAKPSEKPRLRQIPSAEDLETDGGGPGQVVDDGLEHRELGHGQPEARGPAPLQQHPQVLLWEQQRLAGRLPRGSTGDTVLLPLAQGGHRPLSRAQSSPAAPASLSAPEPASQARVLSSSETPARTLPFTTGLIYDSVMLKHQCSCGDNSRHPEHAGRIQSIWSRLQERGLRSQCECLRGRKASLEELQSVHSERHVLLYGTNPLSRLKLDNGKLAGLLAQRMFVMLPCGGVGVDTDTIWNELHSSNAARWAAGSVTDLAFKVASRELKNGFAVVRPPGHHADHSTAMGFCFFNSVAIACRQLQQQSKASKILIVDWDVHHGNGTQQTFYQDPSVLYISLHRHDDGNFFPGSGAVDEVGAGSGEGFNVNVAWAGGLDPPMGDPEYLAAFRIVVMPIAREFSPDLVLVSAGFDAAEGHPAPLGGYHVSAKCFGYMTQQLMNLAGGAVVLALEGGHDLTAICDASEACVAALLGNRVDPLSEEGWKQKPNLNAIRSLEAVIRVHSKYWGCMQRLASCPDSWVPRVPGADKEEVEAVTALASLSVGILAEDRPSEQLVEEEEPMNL
Kind of assay: Inhibition of human HDAC7.

For the next assay, the target named is Histone deacetylase 4 (Homo sapiens, UniProt P56524).
Sequence of Histone deacetylase 4 (P56524 whole entry): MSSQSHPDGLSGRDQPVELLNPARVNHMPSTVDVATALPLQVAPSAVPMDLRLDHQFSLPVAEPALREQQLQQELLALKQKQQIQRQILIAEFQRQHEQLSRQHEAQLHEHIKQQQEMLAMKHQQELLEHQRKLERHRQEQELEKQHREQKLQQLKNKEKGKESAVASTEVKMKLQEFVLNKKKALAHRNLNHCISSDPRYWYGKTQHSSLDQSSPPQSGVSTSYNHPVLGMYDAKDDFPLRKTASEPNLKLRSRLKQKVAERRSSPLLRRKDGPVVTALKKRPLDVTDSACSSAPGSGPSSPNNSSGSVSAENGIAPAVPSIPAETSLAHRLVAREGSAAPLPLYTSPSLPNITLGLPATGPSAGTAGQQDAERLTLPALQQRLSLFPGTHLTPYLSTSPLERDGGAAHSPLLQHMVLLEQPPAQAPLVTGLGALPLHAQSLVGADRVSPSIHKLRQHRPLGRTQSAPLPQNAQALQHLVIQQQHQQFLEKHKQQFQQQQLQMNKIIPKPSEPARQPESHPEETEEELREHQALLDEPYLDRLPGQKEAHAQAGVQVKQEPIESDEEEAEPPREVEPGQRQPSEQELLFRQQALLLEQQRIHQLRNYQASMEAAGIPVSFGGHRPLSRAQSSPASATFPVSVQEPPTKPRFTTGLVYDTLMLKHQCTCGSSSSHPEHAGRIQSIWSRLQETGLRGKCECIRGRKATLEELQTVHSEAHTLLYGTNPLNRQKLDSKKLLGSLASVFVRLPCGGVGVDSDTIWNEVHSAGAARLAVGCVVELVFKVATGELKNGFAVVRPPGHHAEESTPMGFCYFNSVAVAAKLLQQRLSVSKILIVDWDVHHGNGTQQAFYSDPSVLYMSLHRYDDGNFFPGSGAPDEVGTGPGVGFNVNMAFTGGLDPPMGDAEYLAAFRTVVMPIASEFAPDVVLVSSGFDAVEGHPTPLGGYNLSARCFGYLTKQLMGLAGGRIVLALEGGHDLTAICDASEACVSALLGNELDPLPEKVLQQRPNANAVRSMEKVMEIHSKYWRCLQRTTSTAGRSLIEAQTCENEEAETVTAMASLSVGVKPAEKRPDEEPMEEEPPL
The next assay deals with Histone deacetylase 9 (Homo sapiens, UniProt Q9UKV0). In words: Inhibition of human HDAC9.
Sequence of Histone deacetylase 9 (Q9UKV0 whole entry): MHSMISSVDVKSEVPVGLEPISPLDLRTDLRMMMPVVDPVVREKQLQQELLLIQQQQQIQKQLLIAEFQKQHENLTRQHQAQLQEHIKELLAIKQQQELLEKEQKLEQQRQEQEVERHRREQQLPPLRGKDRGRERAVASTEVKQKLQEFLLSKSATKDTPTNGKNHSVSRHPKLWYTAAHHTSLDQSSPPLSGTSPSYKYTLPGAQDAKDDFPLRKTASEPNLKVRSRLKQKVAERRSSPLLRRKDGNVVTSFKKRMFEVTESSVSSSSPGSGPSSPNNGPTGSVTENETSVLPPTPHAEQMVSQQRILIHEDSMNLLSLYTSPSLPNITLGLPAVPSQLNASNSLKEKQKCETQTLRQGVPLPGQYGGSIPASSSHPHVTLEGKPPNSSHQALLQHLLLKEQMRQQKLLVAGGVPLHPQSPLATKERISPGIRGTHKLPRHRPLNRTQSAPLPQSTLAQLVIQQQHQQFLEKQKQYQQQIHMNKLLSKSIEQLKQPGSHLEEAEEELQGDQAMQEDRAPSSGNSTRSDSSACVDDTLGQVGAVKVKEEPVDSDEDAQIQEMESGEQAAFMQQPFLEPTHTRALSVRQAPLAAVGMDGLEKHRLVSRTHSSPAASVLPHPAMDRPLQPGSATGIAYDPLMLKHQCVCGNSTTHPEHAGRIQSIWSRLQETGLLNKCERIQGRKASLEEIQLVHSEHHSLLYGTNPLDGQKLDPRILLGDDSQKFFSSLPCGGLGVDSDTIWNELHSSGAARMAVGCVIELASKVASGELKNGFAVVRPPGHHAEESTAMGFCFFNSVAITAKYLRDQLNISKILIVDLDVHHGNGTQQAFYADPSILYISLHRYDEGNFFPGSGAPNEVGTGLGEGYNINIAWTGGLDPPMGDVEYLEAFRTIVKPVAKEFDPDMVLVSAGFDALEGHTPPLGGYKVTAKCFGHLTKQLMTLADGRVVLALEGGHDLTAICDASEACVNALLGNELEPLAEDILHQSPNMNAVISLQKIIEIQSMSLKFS

The IC50 is the concentration that gives 50% inhibition. Read a high IC50 as a need for much substance.

Description for Histone deacetylase 4: Inhibition of human HDAC4

Take `O=C(/C=C/c1ccc(/C=N/OCc2ccc([N+](=O)[O-])cc2)cc1)NO`: the IC50 amounted to 790 nM against Histone deacetylase 11; 70 nM against Histone deacetylase 8; 2600 nM in the assay with NCI-H460; 760 nM in the assay with NB-4; 1200 nM in the assay with HCT-116; 790 nM on Histone deacetylase 1. The figures for the IC50 against Histone deacetylase 7, at Histone deacetylase 4 and against Histone deacetylase 9 were 2300 nM, 2040 nM and 2470 nM, respectively.
